What follows are molecules tested against PD-L1 His protein / PD-1 Fc protein (Homo sapiens, UniProt Q9NZQ7) (assay: HTRF Assay (PD-1/PD-L1 interaction)). Conditions: PD-L1 His 6 nM, PD-1 Fc 6 nM.
Type: binding
In short: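 HTRF: PD-L1 His (6 nM final), compound (3-fold dilutions, 20 μM to 0.001 μM final) and PD-1 Fc (6 nM final) preincubated 15 min at room temperature. Anti-human IgG-XL665 and anti-6HIS Tb cryptate (mixed at 6.7 nM and 0.35 nM) then added for 1 h at room temperature before reading.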

Sequence of PD-L1 His protein / PD-1 Fc protein (Q9NZQ7 19-238 limits assumed): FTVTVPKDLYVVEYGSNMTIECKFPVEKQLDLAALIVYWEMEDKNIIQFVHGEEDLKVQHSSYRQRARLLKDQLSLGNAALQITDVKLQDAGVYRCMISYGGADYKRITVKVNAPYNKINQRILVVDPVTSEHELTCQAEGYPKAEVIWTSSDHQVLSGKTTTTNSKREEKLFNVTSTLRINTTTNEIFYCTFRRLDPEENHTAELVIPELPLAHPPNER

Compared with `COc1nc(-c2cccc(-c3cccc(-c4ccn5c(=O)c(CN6CC(C(C)(C)O)C6)cnc5c4)c3Cl)c2Cl)ccc1CNC[C@@H]1CCC(=O)N1` [Example 111, (S)-8-(2,2′-Dichloro-3′-(6-methoxy-5-((((5-oxopyrrolidin-2-yl)methyl)amino)methyl)pyridin-2-yl)-[1,1′-biphenyl]-3-yl)-3-((3-(2-hydroxypropan-2-yl)azetidin-1-yl)methyl)-4H-pyrido[1,2-a]pyrimidin-4-one], `COc1nc(-c2cccc(-c3cccc(-c4ccn5c(=O)c(CNC[C@@H]6CCC(=O)N6)cnc5c4)c3Cl)c2Cl)ccc1CN1CC(C(C)(C)O)C1` [Example 112, (S)-8-(2,2′-Dichloro-3′-(5-((3-(2-hydroxypropan-2-yl)azetidin-1-yl)methyl)-6-methoxypyridin-2-yl)-[1,1′-biphenyl]-3-yl)-3-((((5-oxopyrrolidin-2-yl)methyl)amino)methyl)-4H-pyrido[1,2-a]pyrimidin-4-one] is 2.2-fold lower in IC50: 6.5 nM for the first, 2.9 nM for the second.

First: COC(=O)[C@H](CO)NCc1ccc(-c2cccc(-c3cccc(-c4ccn5c(=O)c(CNC[C@@H]6CCC(=O)N6)cnc5c4)c3Cl)c2Cl)nc1OC [Example 113, Methyl ((6-(2,2′-dichloro-3′-(4-oxo-3-(((((S)-5-oxopyrrolidin-2-yl)methyl)amino)methyl)-4H-pyrido[1,2-a]pyrimidin-8-yl)-[1,1′-biphenyl]-3-yl)-2-methoxypyridin-3-yl)methyl)-L-serinate]
Second: COc1nc(-c2cccc(-c3cccc(-c4ccn5c(=O)c(CNC[C@@H]6CCC(=O)N6)cnc5c4)c3Cl)c2Cl)ccc1CN[C@@H](CO)C(=O)O [Example 114, ((6-(2,2′-Dichloro-3′-(4-oxo-3-(((((S)-5-oxopyrrolidin-2-yl)methyl)amino)methyl)-4H-pyrido[1,2-a]pyrimidin-8-yl)-[1,1′-biphenyl]-3-yl)-2-methoxypyridin-3-yl)methyl)-L-serine]
The IC50 of the first is 90-fold higher: 54 nM for the first, 0.6 nM for the second.

Compared with `COc1nc(-c2cccc(-c3cccc(-c4ccn5c(=O)c(CNC[C@@H]6CCC(=O)N6)cnc5c4)c3Cl)c2Cl)ccc1CNC1(C(=O)O)CC1` [Example 115, (S)-1-(((6-(2,2′-Dichloro-3′-(4-oxo-3-((((5-oxopyrrolidin-2-yl)methyl)amino)methyl)-4H-pyrido[1,2-a]pyrimidin-8-yl)-[1,1′-biphenyl]-3-yl)-2-methoxypyridin-3-yl)methyl)amino)cyclopropane-1-carboxylic acid], `COc1nc(-c2cccc(-c3cccc(-c4ccn5c(=O)c(CNC6(C(=O)O)CC6)cnc5c4)c3Cl)c2Cl)ccc1CNC[C@@H]1CCC(=O)N1` [Example 120, (S)-1-(((8-(2,2′-Dichloro-3′-(6-methoxy-5-((((5-oxopyrrolidin-2-yl)methyl)amino)methyl)-pyridin-2-yl)-[1,1′-biphenyl]-3-yl)-4-oxo-4H-pyrido[1,2-a]pyrimidin-3-yl)methyl)amino)-cyclopropane-1-carboxylic acid] is 6.2-fold lower in IC50: 2.5 nM for the first, 0.4 nM for the second. The second is the more potent here.

`COc1nc(-c2cccc(-c3cccc(-c4ccn5c(=O)c(CN6CC[C@H](C(=O)O)C6)cnc5c4)c3Cl)c2Cl)cnc1CNC[C@@H]1CCC(=O)N1` [Example 116, (S)-1-((8-(2,2′-Dichloro-3′-(6-methoxy-5-(((((S)-5-oxopyrrolidin-2-yl)methyl)amino)methyl)pyrazin-2-yl)-[1,1′-biphenyl]-3-yl)-4-oxo-4H-pyrido[1,2-a]pyrimidin-3-yl)methyl)pyrrolidine-3-carboxylic acid] and `COc1nc(-c2cccc(-c3cccc(-c4ccn5c(=O)c(CN6CC(C(=O)O)C6)cnc5c4)c3Cl)c2Cl)cnc1CNC[C@@H]1CCC(=O)N1` [Example 117, (S)-1-((8-(2,2′-Dichloro-3′-(6-methoxy-5-((((5-oxopyrrolidin-2-yl)methyl)amino)methyl)pyrazin-2-yl)-[1,1′-biphenyl]-3-yl)-4-oxo-4H-pyrido[1,2-a]pyrimidin-3-yl)methyl)azetidine-3-carboxylic acid] are within 1.5-fold of each other in IC50: 0.3 nM for the first, 0.4 nM for the second.

`COc1nc(-c2cccc(-c3cccc(-c4ccn5c(=O)c(CNC[C@@H]6CCC(=O)N6)cnc5c4)c3Cl)c2Cl)ccc1CN1CC[C@H](C(=O)O)C1` [Example 118, (S)-1-((6-(2,2′-Dichloro-3′-(4-oxo-3-(((((S)-5-oxopyrrolidin-2-yl)methyl)amino)methyl)-4H-pyrido[1,2-a]pyrimidin-8-yl)-[1,1′-biphenyl]-3-yl)-2-methoxypyridin-3-yl)methyl)pyrrolidine-3-carboxylic acid] and `COc1nc(-c2cccc(-c3cccc(-c4ccn5c(=O)c(CN6CCC[C@H](C(=O)O)C6)cnc5c4)c3Cl)c2Cl)ccc1CNC[C@@H]1CCC(=O)N1` [Example 130, (S)-1-((8-(2,2′-Dichloro-3′-(6-methoxy-5-(((((S)-5-oxopyrrolidin-2-yl)methyl)amino)methyl)pyridin-2-yl)-[1,1′-biphenyl]-3-yl)-4-oxo-4H-pyrido[1,2-a]pyrimidin-3-yl)methyl)piperidine-3-carboxylic acid] are within 1.5-fold of each other in IC50: 0.2 nM for the first, 0.3 nM for the second.

`COc1nc(-c2cccc(-c3cccc(-c4ccn5c(=O)c(CNC[C@@H]6CCC(=O)N6)cnc5c4)c3Cl)c2Cl)ccc1CN1CC(C(=O)O)C1` [Example 119, (S)-1-((6-(2,2′-Dichloro-3′-(4-oxo-3-((((5-oxopyrrolidin-2-yl)methyl)amino)methyl)-4H-pyrido[1,2-a]pyrimidin-8-yl)-[1,1′-biphenyl]-3-yl)-2-methoxypyridin-3-yl)methyl)azetidine-3-carboxylic acid] and `COc1nc(-c2cccc(-c3cccc(-c4ccn5c(=O)c(CN6CCC[C@H]6C(=O)O)cnc5c4)c3Cl)c2Cl)ccc1CNC[C@@H]1CCC(=O)N1` [Example 128, ((8-(2,2′-Dichloro-3′-(6-methoxy-5-(((((S)-5-oxopyrrolidin-2-yl)methyl)amino)methyl)pyridin-2-yl)-[1,1′-biphenyl]-3-yl)-4-oxo-4H-pyrido[1,2-a]pyrimidin-3-yl)methyl)-L-proline] are within 1.5-fold of each other in IC50: 0.3 nM for the first, 0.2 nM for the second.

`COC(=O)C12CCC(CC1)N(Cc1ccc(-c3cccc(-c4cccc(-c5ccn6c(=O)c(CNC[C@@H]7CCC(=O)N7)cnc6c5)c4Cl)c3Cl)nc1OC)C2` [Example 121, Methyl (S)-2-((6-(2,2′-dichloro-3′-(4-oxo-3-((((5-oxopyrrolidin-2-yl)methyl)amino)methyl)-4H-pyrido[1,2-a]pyrimidin-8-yl)-[1,1′-biphenyl]-3-yl)-2-methoxypyridin-3-yl)methyl)-2-azabicyclo[2.2.2]octane-4-carboxylate] and `COc1nc(-c2cccc(-c3cccc(-c4ccn5c(=O)c(CNC[C@@H]6CCC(=O)N6)cnc5c4)c3Cl)c2Cl)ccc1CN1CC2(C(=O)O)CCC1CC2` [Example 122, (S)-2-((6-(2,2′-Dichloro-3′-(4-oxo-3-((((5-oxopyrrolidin-2-yl)methyl)amino)methyl)-4H-pyrido[1,2-a]pyrimidin-8-yl)-[1,1′-biphenyl]-3-yl)-2-methoxypyridin-3-yl)methyl)-2-azabicyclo[2.2.2]octane-4-carboxylic acid] are within 1.5-fold of each other in IC50: 1 nM for the first, 0.8 nM for the second.

Compared with `COc1nc(-c2cccc(-c3cccc(-c4cnc5c(Cl)c(CNC[C@@H]6CCC(=O)N6)sc5c4)c3Cl)c2Cl)ccc1CNC[C@@H]1CCC(=O)N1` [Example 123, (S)-5-((((3-Chloro-6-(2,2′-dichloro-3′-(6-methoxy-5-(((((S)-5-oxopyrrolidin-2-yl)methyl)amino)methyl)pyridin-2-yl)-[1,1′-biphenyl]-3-yl)thieno[3,2-b]pyridin-2-yl)methyl)amino)methyl)pyrrolidin-2-one], `COc1nc(-c2cccc(-c3cccc(-c4ccn5c(=O)c(CNC[C@@H]6CCC(=O)N6)cnc5c4)c3Cl)c2Cl)ccc1CNCC(=O)O` [Example 125, (S)-((6-(2,2′-Dichloro-3′-(4-oxo-3-((((5-oxopyrrolidin-2-yl)methyl)amino)methyl)-4H-pyrido[1,2-a]pyrimidin-8-yl)-[1,1′-biphenyl]-3-yl)-2-methoxypyridin-3-yl)methyl)glycine] is 3.5-fold higher in IC50: 0.2 nM for the first, 0.7 nM for the second.

Compared with `COC(=O)CNCc1ccc(-c2cccc(-c3cccc(-c4ccn5c(=O)c(CNC[C@@H]6CCC(=O)N6)cnc5c4)c3Cl)c2Cl)nc1OC` [Example 124, Methyl (S)-((6-(2,2′-dichloro-3′-(4-oxo-3-((((5-oxopyrrolidin-2-yl)methyl)amino)methyl)-4H-pyrido[1,2-a]pyrimidin-8-yl)-[1,1′-biphenyl]-3-yl)-2-methoxypyridin-3-yl)methyl)glycinate], `COc1nc(-c2cccc(-c3cccc(-c4ccn5c(=O)c(CNC[C@@H](O)CC(=O)O)cnc5c4)c3Cl)c2Cl)ccc1CNC[C@@H]1CCC(=O)N1` [Example 126, (S)-4-(((8-(2,2′-Dichloro-3′-(6-methoxy-5-(((((S)-5-oxopyrrolidin-2-yl)methyl)amino)methyl)pyridin-2-yl)-[1,1′-biphenyl]-3-yl)-4-oxo-4H-pyrido[1,2-a]pyrimidin-3-yl)methyl)amino)-3-hydroxybutanoic acid] is 9.5-fold lower in IC50: 3.8 nM for the first, 0.4 nM for the second.

`COc1nc(-c2cccc(-c3cccc(-c4ccn5c(=O)c(CN6CC7(C(=O)O)CCC6CC7)cnc5c4)c3Cl)c2Cl)ccc1CNC[C@@H]1CCC(=O)N1` [Example 127, (S)-2-((8-(2,2′-Dichloro-3′-(6-methoxy-5-((((5-oxopyrrolidin-2-yl)methyl)amino)methyl)pyridin-2-yl)-[1,1′-biphenyl]-3-yl)-4-oxo-4H-pyrido[1,2-a]pyrimidin-3-yl)methyl)-2-azabicyclo[2.2.2]octane-4-carboxylic acid] and `COc1nc(-c2cccc(-c3cccc(-c4ccn5c(=O)c(CN6CCCC[C@H]6C(=O)O)cnc5c4)c3Cl)c2Cl)ccc1CNC[C@@H]1CCC(=O)N1` [Example 129, (S)-1-((8-(2,2′-Dichloro-3′-(6-methoxy-5-(((((S)-5-oxopyrrolidin-2-yl)methyl)amino)methyl)pyridin-2-yl)-[1,1′-biphenyl]-3-yl)-4-oxo-4H-pyrido[1,2-a]pyrimidin-3-yl)methyl)piperidine-2-carboxylic acid] are the same in IC50: 0.3 nM for the first, 0.3 nM for the second.

From patent publication US20230143612A1 (Arbutus Biopharma Corporation, priority 2020, published 2023)
